Test results from patent publication US20260265246A1 (ICAHN SCHOOL OF MEDICINE AT MOUNT SINAI, priority 2021, published 2026).
Like-named read-outs stand apart in the source and are kept apart here.

Columns and labels:
5HT2A receptor [1] = biological target: T1, 5HT2A receptor (Homo sapiens, UniProt P28223); assay: cell-based; design: expressed in transfected cells; host or cells: HEK293T cells, transient co-transfection; conditions: for Emax: HEK-293T
5HT2A receptor [2] = biological target: T1, 5HT2A receptor; assay: biochemical; type: binding; design: expressed in transfected cells; crude membranes; conditions: 5HT2A Ki (nM)
[3] = 5HTA Gq EC50 (nM), BRET2 Gαq dissociation, HEK293T
[4] = BRET2 Gαq dissociation, HEK293T, normalized to 5-HT, read-out: 5HTA Gq Emax (%)
[5] = secondary binding assay, Cheng-Prusoff
[6] = 5HT2A Gq EC50 (nM), BRET2 Gαq dissociation, HEK293T cells
[7] = BRET2 Gαq dissociation, HEK293T cells, normalized to 5-HT, read-out: 5HT2A Gq Emax (%)
[8] = secondary radioligand binding, Ki from IC50 by Cheng-Prusoff
[9] = read-out: 5HTA Gq Emax (%), BRET2 Gαq dissociation, HEK293T, normalized to 5-HT

T1 sequence (P28223 whole entry): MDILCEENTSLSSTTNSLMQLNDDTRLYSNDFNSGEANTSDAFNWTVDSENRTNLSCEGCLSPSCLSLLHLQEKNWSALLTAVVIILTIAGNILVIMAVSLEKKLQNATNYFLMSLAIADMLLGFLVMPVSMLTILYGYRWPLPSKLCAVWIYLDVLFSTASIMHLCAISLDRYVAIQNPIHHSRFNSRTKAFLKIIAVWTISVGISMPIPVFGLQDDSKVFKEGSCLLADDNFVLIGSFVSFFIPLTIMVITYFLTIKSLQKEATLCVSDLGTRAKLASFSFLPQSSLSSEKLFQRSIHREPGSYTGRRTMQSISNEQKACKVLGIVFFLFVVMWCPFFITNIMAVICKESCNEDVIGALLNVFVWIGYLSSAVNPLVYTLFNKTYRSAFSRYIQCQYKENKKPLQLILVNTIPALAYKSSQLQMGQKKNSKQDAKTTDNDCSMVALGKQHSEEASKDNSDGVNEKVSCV

SMILES | Ki (5HT2A receptor [2]; [5]) | Ki (5HT2A receptor [2]; [8]) | further results
Fc1cccc2c(C34CNCCC3C4)n[nH]c12 (stereo not drawn) [Example 194, 3-(3-azabicyclo[4.1.0]heptan-1-yl)-7-fluoro-1H-indazole] | 2480 nM |  | EC50 (5HT2A receptor [1]; [3]): 795 nM; Emax (5HT2A receptor [1]; [4]): 64.4%
COc1cccc2c(C3=CCCN(C)C3)c[nH]c12 [Example 53, 7-methoxy-3-(1-methyl-1,2,5,6-tetrahydropyridin-3-yl)-1H-indole] |  | 374 nM | EC50 (5HT2A receptor [1]; [6]): 166 nM; Emax (5HT2A receptor [1]; [7]): 77.8%
COc1cccc2c(C3=CCCN(Cc4ccccc4)C3)c[nH]c12 [Example 71, 3-(1-benzyl-1,2,5,6-tetrahydropyridin-3-yl)-7-methoxy-1H-indole] |  | 448 nM | EC50 (5HT2A receptor [1]; [6]): 530 nM; Emax (5HT2A receptor [1]; [7]): 65.2%
CN1CCC=C(c2c[nH]c3ccncc23)C1 [Example 136, 3-(1-methyl-1,2,5,6-tetrahydropyridin-3-yl)-1H-pyrrolo[3,2-c]pyridine] | 1810 nM |  | EC50 (5HT2A receptor [1]; [3]): 529 nM; Emax (5HT2A receptor [1]; [4]): 92.5%
FC1(F)C2CCNCC21c1n[nH]c2c(Cl)cccc12 (stereo not drawn) [Example 188, 7-chloro-3-(7,7-difluoro-3-azabicyclo[4.1.0]heptan-1-yl)-1H-indazole] | 2100 nM |  | EC50 (5HT2A receptor [1]; [3]): 1460 nM; Emax (5HT2A receptor [1]; [9]): 83.7%
Clc1cccc2c(C34CNCCC3C4)n[nH]c12 (stereo not drawn) [Example 181, 3-(3-azabicyclo[4.1.0]heptan-1-yl)-7-chloro-1H-indazole] | 842 nM |  | EC50 (5HT2A receptor [1]; [3]): 120 nM; Emax (5HT2A receptor [1]; [9]): 61.3%
CCc1ccc2[nH]cc(C3=CCCNC3)c2c1 [Example 25, 5-ethyl-3-(1,2,5,6-tetrahydropyridin-3-yl)-1H-indole] |  | 941 nM | EC50 (5HT2A receptor [1]; [6]): 592 nM; Emax (5HT2A receptor [1]; [7]): 73.3%
C1=C(c2c[nH]c3ncc(-c4ccccc4)cc23)CNCC1 [Example 4, 5-phenyl-3-(1,2,5,6-tetrahydropyridin-3-yl)-1H-pyrrolo[2,3-b]pyridine] |  | 613 nM | EC50 (5HT2A receptor [1]; [6]): 294 nM; Emax (5HT2A receptor [1]; [7]): 67%
CN1CCCC=C(c2n[nH]c3c(Cl)cccc23)C1 [Example 211, 7-chloro-3-(1-methyl-2,5,6,7-tetrahydro-1H-azepin-3-yl)-1H-indazole] | 1180 nM |  | EC50 (5HT2A receptor [1]; [3]): 732 nM; Emax (5HT2A receptor [1]; [4]): 59.9%
CC(C)c1cccc2c(C3CNC3)c[nH]c12 [Example 262, 3-(azetidin-3-yl)-7-isopropyl-1H-indole] | 1910 nM |  | EC50 (5HT2A receptor [1]; [3]): 316 nM; Emax (5HT2A receptor [1]; [4]): 114%
C1=C(c2c[nH]c3nccc(-c4ccccc4)c23)CNCC1 [Example 12, 4-phenyl-3-(1,2,5,6-tetrahydropyridin-3-yl)-1H-pyrrolo[2,3-b]pyridine] |  | 191 nM | 
Clc1cccc2c(-c3cn[nH]c3)n[nH]c12 [Example 218, 7-chloro-3-(1H-pyrazol-4-yl)-1H-indazole] | 1720 nM |  | 
COc1ccc2c(C3=CCCN(C)C3)c[nH]c2c1 [Example 36, 6-methoxy-3-(1-methyl-1,2,5,6-tetrahydropyridin-3-yl)-1H-indole] |  | 8500 nM | 
Fc1cccc2c(C34CNCC3C4(F)F)n[nH]c12 (stereo not drawn) [Example 201, 3-(6,6-difluoro-3-azabicyclo[3.1.0]hexan-1-yl)-7-fluoro-1H-indazole] | 4310 nM |  | 
CC(C)N1CCOC(c2c[nH]c3c(Cl)cccc23)C1 (stereo not drawn) [Example 248, 2-(7-chloro-1H-indol-3-yl)-4-isopropylmorpholine] | 5890 nM |  | 
CN1CCC2CC2(c2n[nH]c3c(Cl)cccc23)C1 (stereo not drawn) [Example 197, 7-chloro-3-(3-methyl-3-azabicyclo[4.1.0]heptan-1-yl)-1H-indazole] | 1200 nM |  | 
CCCN1CC=C(c2n[nH]c3c(Cl)cccc23)CC1 [Example 242, 7-chloro-3-(1-propyl-1,2,3,6-tetrahydropyridin-4-yl)-1H-indazole] | 330 nM |  | 
C1=C(c2c[nH]c3cc(-c4ccccc4)ccc23)CNCC1 [Example 39, 6-phenyl-3-(1,2,5,6-tetrahydropyridin-3-yl)-1H-indole] |  | 6760 nM | 
Clc1cccc2c(-c3cnc[nH]3)n[nH]c12 [Example 217, 7-chloro-3-(1H-imidazol-5-yl)-1H-indazole] | > 10000 nM |  | 

SMILES | Ki (5HT2A receptor [2]; [5]) | Ki (5HT2A receptor [2]; [8]) | further results
Fc1cccn2c(C3=CCCNC3)cnc12 [Example 111, 8-fluoro-3-(1,2,5,6-tetrahydropyridin-3-yl)imidazo[1,2-a]pyridine] |  | > 10000 nM | 
CCCN1CCC=C(c2c[nH]c3cnccc23)C1 [Example 143, 3-(1-propyl-1,2,5,6-tetrahydropyridin-3-yl)-1H-pyrrolo[2,3-c]pyridine] | 9760 nM |  | 
CN1CCC=C(c2c[nH]c3c(CO)cccc23)C1 [Example 58, (3-(1-methyl-1,2,5,6-tetrahydropyridin-3-yl)-1H-indol-7-yl)methanol] |  | > 10000 nM | 
CN1CCC=C(c2cn(C)c3ncccc23)C1 [Example 48, 1-methyl-3-(1-methyl-1,2,5,6-tetrahydropyridin-3-yl)-1H-pyrrolo[2,3-b]pyridine] |  | 423 nM | 
COc1cccc2c(C3=CCCNC3)n[nH]c12 [Example 92, 7-methoxy-3-(1,2,5,6-tetrahydropyridin-3-yl)-1H-indazole] |  | 1090 nM | 
Cc1cccc2c(C3CN4CCC3CC4)c[nH]c12 (stereo not drawn) [Example 253, 3-(7-methyl-1H-indol-3-yl)quinuclidine] | > 10000 nM |  | 
CCN(CC)C(=O)NC1C=C(c2c[nH]c3ncccc23)CNC1 (stereo not drawn) [Example 49, 3-(5-(1H-pyrrolo[2,3-b]pyridin-3-yl)-1,2,3,6-tetrahydropyridin-3-yl)-1,1-diethylurea] |  | 5580 nM | 
OCc1cccc2c(C3=CCCN(Cc4ccccc4)C3)c[nH]c12 [Example 75, (3-(1-benzyl-1,2,5,6-tetrahydropyridin-3-yl)-1H-indol-7-yl)methanol] |  | > 10000 nM | 
CCCc1cccc2c(C3=CCCNC3)n[nH]c12 [Example 236] | 294 nM |  | 
Cc1ccc2c(C3=CCCNC3)c[nH]c2c1 [Example 29, 6-methyl-3-(1,2,5,6-tetrahydropyridin-3-yl)-1H-indole] |  | 1200 nM | 
C1=C(c2c[nH]c3ccc(-c4ccccc4)cc23)CNCC1 [Example 27, 5-phenyl-3-(1,2,5,6-tetrahydropyridin-3-yl)-1H-indole] |  | 1480 nM | 
CC(C)(C)c1ccc2c(C3=CCCNC3)c[nH]c2c1 [Example 37, 6-(tert-butyl)-3-(1,2,5,6-tetrahydropyridin-3-yl)-1H-indole] |  | 9910 nM | 
Cc1ccc2c(C3=CCCN(C)C3)c[nH]c2c1 [Example 30, 6-methyl-3-(1-methyl-1,2,5,6-tetrahydropyridin-3-yl)-1H-indole] |  | 647 nM | 
Cc1cccc2c(C34CNCCC3C4(F)F)n[nH]c12 (stereo not drawn) [Example 189, 3-(7,7-difluoro-3-azabicyclo[4.1.0]heptan-1-yl)-7-methyl-1H-indazole] | 6920 nM |  | 
Cc1cccc2c(C3=CN4CCC3CC4)c[nH]c12 [Example 252, 3-(7-methyl-1H-indol-3-yl)-1-azabicyclo[2.2.2]oct-2-ene] | 6020 nM |  | 
CN1CCC=C(c2c[nH]c3cc(C(C)(C)C)ccc23)C1 [Example 38, 6-(tert-butyl)-3-(1-methyl-1,2,5,6-tetrahydropyridin-3-yl)-1H-indole] |  | 7880 nM | 
CN1CCC=C(c2c[nH]c3c(C(C)(C)C)cccc23)C1 [Example 55, 7-(tert-butyl)-3-(1-methyl-1,2,5,6-tetrahydropyridin-3-yl)-1H-indole] |  | 374 nM | 
c1cc(-c2cncnc2)c2[nH]nc(-c3cncnc3)c2c1 [Example 215, 3,7-di(pyrimidin-5-yl)-1H-indazole] | 3280 nM |  | 
